Measurements taken from patent US9623048B2, “Human hepatocyte-like cells and uses thereof” (SHANGHAI INSTITUTES FOR BIOLOGICAL SCIENCES, CHINESE …, priority 2013, dated 2017).
Where two headings read alike, the source gives them in different places.

How the values were obtained:
[1] = tested on: CYP450 enzymes in hiHep cells; test: CYP induction assay in hiHep cells (q-PCR); details: 48 hours inducer treatment
Description: Total RNA was extracted to measure the induction of CYP enzymes responding to chemical inducers by q-PCR. Total RNA of cells without inducer treatment were used to measure the expression of CYP450 genes and nuclear receptor genes.
Next, assays were carried out to analyze whether hiHep cells were responsive to CYP inducers.
Transcriptional activation of CYP450 enzymes and many other drug metabolism enzymes are mediated by nuclear receptors including AHR, CAR, and PXR.

[2] = tested on: hiHep cells; test: Sandwich culture biliary excretion assay in hiHep cells; details: sandwich cultured hiHep cells, 10 minutes incubation
Description: To prepare sandwich culture, 1×10^5 hiHep cells, primary human hepatocytes, and HFF were seeded in collagen I coated 24 well plate. 200 μL 1.5 mg/ml freshly prepared neutralized collagen gel solution were then poured on cells. After solidification, cells were cultured in Williams' E medium supplemented with 5% FBS, 10 μM TCA and 2 μM cAMP for a further 4 days.
To analyze the biliary excretion index, cells were washed once and then incubate in HBSS buffer or Calcium free HBSS buffer at 37° C. […] Cumulative uptake was stopped by washing with cold HBSS buffer for three times. […] The amount of CLF was quantified by measuring fluorescence at 492 nm and 536 nm with a Synergy 4 microplate reader (Biotek, Winooski, USA). Biliary Excretion Index (BEI) was calculated as: BEI=(AHBSS−AHBSS([…]))/AHBSS×100%.
Membrane transporter-mediated biliary excretion is another important function of hepatocytes for clearance of xenobiotics. Drug clearance through biliary excretion is a critically evaluated property in the selection of drug candidates.

[3] = tested on: hiHep cells; test: CYP metabolism assay in hiHep cells (LC-MS/MS of metabolic products)
Description: (§1) For the measurement of CYP enzyme activities, cells were induced with different compounds for certain drug metabolisms. The supernatants were collected for measurement of metabolized compounds by LC-MS/MS (Agilent 1200 HPLC and ABI 4000 mass-spectrometer).
(§2) Freshly thawed primary human hepatocytes were directly used as a positive control. Cells were incubated with substrate in 200 μl incubation medium at different concentrations for 3 hours at 37° C. To stop the reaction, […] cold methanol was added and centrifuged. The supernatants were collected for measurement of metabolized compounds by LC-MS/MS (Agilent 1200 HPLC and ABI 4000 mass-spectrometer). Total cell protein amount was used to normalize the data. Substrates and metabolized products used for standard curves were commercially purchased.
Freshly thawed primary human hepatocytes were directly used as a positive control.

[4] = tested on: hiHep^LT cells; test: CYP metabolism assay in hiHep^LT cells; details: passage 10
Description: as §1, §2

[5] = tested on: MSC-hiHep cells; test: CYP metabolism assay in AD-MSC-derived hiHep cells
Description: as §2

Cc1ccc2cc3c(ccc4ccccc43)c3c2c1CC3 [3-methylcholanthrene]
induction of mRNA expression levels of CYP1A2, CYP2A6, CYP2B6, CYP2C8 and CYP2C9 [1]: markedly induced

CC(CCC(=O)NC(CCCCNC(=S)Nc1ccc(-c2c3ccc(=O)cc-3oc3cc(O)ccc23)c(C(=O)O)c1)C(=O)O)C1CCC2C3C(O)CC4CC(O)CCC4(C)C3CC(O)C12C (stereo not drawn) [CLF, cholyl-lysyl-fluorescein]
biliary excretion indices (BEI) [2]: remarkable

O=c1ccc2ccccc2o1 [coumarin]
CYP enzyme-dependent metabolism [3]: showed CYP enzyme-dependent metabolism

COc1ccc2c(c1)[C@]13CCCC[C@@H]1[C@H](C2)N(C)CC3 [dextromethorphan]
CYP enzyme-dependent metabolism ([3]; hiHep cells after 48 hours CYP induction, 3 hours incubation): showed CYP enzyme-dependent metabolism | products of metabolism [4]: not detected | products of metabolism [5]: not detected

CCC1(c2ccccc2)C(=O)NC(=O)NC1=O [phenobarbital]
induction of CYP3A4 mRNA [1]: relatively low but significant level | induction of mRNA expression levels of CYP1A2, CYP2A6, CYP2B6, CYP2C8 and CYP2C9 [1]: markedly induced

[D-Pen2,5]-enkephalin hydrate [DPDPE]
biliary excretion indices (BEI) [2]: remarkable
